Reference: ChEMBL document CHEMBL1201862, “PubChem BioAssay data set” (2004)
Active and inactive are the calls of the source.

How the values were obtained:
[1] = target: T1, Voltage-gated N-type calcium channel alpha-1B subunit/Amyloid beta A4 precursor protein-binding family A member 1 (Homo sapiens, UniProt Q00975+Q02410); assay type: protein assay
[2] = target: T1, Voltage-gated N-type calcium channel alpha-1B subunit/Amyloid beta A4 precursor protein-binding family A member 1; assay type: protein assay; remark: listed apart in the source
cells [3] = assay type: functional
Cytochrome P450 2C9 = Cytochrome P450 2C9 (Homo sapiens, UniProt P11712)
Cytochrome P450 2C9, sequence (P11712 whole entry): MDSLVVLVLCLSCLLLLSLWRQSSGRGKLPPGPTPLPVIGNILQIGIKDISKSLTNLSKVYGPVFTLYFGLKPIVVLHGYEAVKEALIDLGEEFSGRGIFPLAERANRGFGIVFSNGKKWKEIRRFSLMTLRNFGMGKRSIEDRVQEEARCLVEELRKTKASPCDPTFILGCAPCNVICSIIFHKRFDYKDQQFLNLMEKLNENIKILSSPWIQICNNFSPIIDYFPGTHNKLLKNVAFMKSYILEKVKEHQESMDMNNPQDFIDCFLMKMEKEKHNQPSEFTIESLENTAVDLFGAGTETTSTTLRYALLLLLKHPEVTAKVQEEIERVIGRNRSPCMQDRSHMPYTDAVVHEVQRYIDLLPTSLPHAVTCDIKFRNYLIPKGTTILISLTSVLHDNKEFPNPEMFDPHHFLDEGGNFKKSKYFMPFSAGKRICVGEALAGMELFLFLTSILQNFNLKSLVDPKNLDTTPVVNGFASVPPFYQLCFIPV

fMet-Leu-Phe receptor = target: T2, fMet-Leu-Phe receptor (Homo sapiens, UniProt P21462); test: FPR ligands, dose response (AID 519); assay type: functional
T2 sequence (P21462 whole entry): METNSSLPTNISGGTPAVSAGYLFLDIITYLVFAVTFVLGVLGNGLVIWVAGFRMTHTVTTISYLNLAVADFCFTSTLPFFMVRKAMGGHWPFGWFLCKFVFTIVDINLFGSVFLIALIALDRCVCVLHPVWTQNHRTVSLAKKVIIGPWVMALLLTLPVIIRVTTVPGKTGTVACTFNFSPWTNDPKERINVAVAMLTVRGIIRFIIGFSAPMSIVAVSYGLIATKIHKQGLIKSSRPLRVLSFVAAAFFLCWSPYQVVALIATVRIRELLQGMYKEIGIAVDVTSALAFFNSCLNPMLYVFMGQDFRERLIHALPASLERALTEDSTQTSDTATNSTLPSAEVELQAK

Cytochrome P450 2C19 = Cytochrome P450 2C19 (Homo sapiens, UniProt P33261); test: Cytochrome panel assay with activity outcomes. Panel member name: p450-cyp2c19 Compounds with AC50 equal or less than 10 uM are considered active; assay type: functional; conditions: read-out: AC50
Cytochrome P450 2C19, sequence (P33261 whole entry): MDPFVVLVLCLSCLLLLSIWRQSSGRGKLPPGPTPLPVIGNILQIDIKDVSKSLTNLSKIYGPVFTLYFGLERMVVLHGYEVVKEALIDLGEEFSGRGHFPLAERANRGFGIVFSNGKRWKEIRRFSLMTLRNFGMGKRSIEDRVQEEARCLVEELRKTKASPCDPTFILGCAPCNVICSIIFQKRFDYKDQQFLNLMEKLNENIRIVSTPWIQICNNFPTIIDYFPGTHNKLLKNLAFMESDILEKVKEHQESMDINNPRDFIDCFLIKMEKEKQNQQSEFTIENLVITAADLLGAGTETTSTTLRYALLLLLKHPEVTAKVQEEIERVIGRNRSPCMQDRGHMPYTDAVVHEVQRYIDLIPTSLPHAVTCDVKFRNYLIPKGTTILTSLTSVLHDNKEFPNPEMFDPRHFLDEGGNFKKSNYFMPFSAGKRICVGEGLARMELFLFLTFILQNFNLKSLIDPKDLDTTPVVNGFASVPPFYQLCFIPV

[4] = target: T3, Short transient receptor potential channel 4 (Mus musculus, UniProt Q9QUQ5); test: mouse TRPC4 channel inhibitors, dose response, cell-based, HEK293 TRPC4/mu-opioid, Fluo-4 calcium (AID 434942); assay type: functional;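 also: potency of inhibitors blocking the TRPC4 calcium response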
T3 sequence (Q9QUQ5 whole entry): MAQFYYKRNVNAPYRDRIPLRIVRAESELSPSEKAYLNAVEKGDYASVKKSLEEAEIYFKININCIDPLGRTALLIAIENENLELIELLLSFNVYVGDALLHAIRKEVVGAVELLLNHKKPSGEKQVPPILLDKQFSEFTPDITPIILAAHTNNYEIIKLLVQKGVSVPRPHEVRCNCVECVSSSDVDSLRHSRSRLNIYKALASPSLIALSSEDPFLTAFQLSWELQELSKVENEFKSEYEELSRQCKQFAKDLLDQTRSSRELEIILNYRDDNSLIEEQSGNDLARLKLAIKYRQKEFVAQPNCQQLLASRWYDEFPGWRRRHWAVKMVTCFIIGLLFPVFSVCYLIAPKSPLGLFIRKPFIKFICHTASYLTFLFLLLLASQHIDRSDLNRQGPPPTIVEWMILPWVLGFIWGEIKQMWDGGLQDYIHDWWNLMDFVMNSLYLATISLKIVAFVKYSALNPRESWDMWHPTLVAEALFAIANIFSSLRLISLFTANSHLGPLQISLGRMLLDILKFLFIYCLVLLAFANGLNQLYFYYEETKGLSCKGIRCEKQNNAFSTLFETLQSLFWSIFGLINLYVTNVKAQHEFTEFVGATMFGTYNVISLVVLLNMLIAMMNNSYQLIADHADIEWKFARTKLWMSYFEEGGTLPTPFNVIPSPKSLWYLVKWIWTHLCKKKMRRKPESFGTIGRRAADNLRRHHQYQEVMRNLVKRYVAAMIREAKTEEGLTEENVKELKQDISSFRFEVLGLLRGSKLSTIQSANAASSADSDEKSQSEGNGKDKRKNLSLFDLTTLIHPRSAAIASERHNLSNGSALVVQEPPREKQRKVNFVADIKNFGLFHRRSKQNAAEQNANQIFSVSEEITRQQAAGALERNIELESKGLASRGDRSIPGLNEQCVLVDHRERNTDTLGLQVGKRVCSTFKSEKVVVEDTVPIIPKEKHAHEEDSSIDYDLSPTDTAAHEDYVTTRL

[5] = target: T4, Heat shock factor protein 1 (Mus musculus, UniProt P38532); test: inhibition of MG132-induced HSE-luciferase signal, confirmation, cell-based, NIH3T3, luminescence, dose retest (AID 2382); assay type: functional;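 also: NIH3T3 fibroblasts with HSF1-driven luciferase reporter stressed by proteasome inhibitor MG132; luminescence from HSF1-driven luciferase expression after 8 hours of MG132 stress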
T4 sequence (P38532 whole entry): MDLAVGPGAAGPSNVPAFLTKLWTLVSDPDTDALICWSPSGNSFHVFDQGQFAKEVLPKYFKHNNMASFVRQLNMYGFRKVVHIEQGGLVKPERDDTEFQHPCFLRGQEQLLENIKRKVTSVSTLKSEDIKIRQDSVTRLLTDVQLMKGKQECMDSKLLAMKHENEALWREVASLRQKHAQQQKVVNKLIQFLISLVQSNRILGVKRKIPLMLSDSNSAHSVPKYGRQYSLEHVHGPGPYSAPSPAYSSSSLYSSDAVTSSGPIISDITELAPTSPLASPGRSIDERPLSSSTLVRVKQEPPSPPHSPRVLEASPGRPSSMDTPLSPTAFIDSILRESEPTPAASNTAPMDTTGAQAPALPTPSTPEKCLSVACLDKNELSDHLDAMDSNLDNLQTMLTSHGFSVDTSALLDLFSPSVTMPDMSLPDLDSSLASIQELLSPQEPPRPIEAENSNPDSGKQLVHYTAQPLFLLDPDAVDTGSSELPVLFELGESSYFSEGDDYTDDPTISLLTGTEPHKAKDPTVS

[6] = HepG2 cell cytotoxicity, dose response, cytotoxicity control for Shn3 inhibitor project, CellTiter-Glo, cherry-picked (AID 624134); assay type: functional, cell-based
[7] = cytotoxicity in HEK-293T cells, dose response, cytotoxicity control for TCR NF-kB inhibitor project, luminescence, T-cell screen hits (AID 489026); assay type: functional, cell-based;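 also: cells exposed to compound about 14 hours before the viability readout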
[8] = Shn3 3'UTR reporter inhibitors, dose response, cell-based, Clone20 osteoblasts, firefly luciferase, cherry-picked (AID 624132); assay type: functional;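 also: firefly luciferase luminescence from reporter carrying the Shn3 3'UTR in osteoblasts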
[9] = control 3'UTR Renilla luciferase suppression, dose response, counter-screen for Shn3 inhibitor project, cell-based, Clone20-Shn3RL, cherry-picked (AID 624133); assay type: functional
INS1 = test: beta cell apoptosis inhibitors, cytokine rescue, dose response, luminescence, retest (AID 449756); assay type: functional, cell-based; conditions: Rattus norvegicus;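 also: cell death triggered by IL-1 beta plus TNF-alpha plus IFN-gamma mixture; protective hits raise ATP signal compared with cytokine alone wells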
BJ [10] = test: cytotoxicity toward BJ-TERT-LT-ST fibroblasts, dose response, cell-based, RAS-independent, luminescence (AID 1935); assay type: functional; conditions: Homo sapiens;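 also: BJ fibroblasts immortalized with TERT plus LT and ST oncogenes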
BJ [11] = test: cytotoxicity toward BJ-TERT fibroblasts, dose response, cell-based, RAS-independent, luminescence (AID 1933); assay type: functional; conditions: Homo sapiens
BJ [12] = test: cells; assay type: functional, cell-based; conditions: Homo sapiens
[13] = Luminescence Cell-Based Dose Response HTS to Identify Inhibitors of 5'UTR Stem-Loop Driven Prion Protein mRNA Translation in H4 Neuroglioblastoma Cells. [Related pubchem assays: 1827 (Project Summary), 1813 (Primary HTS)]; assay type: functional
[14] = inhibitors of firefly luciferase expression or activity, dose response, H4 neuroglioma cells, luminescence (AID 1990); assay type: functional, cell-based
[15] = inhibitors of SNCA 5'UTR-driven reporter translation, confirmation, H4 neuroglioma cells, luminescence (AID 1988); assay type: functional, cell-based
[16] = cytotoxicity toward DRD oncogenic fibroblasts, dose response, cell-based, non-viral oncogenic, luminescence (AID 1934); assay type: functional; conditions: Homo sapiens
cells [17] = assay type: functional, cell-based
cells [18] = assay type: functional, cell-based; remark: listed apart in the source
Streptococcus = test: Group A Streptococcus viability loss, dose response, counter-screen for streptokinase expression inhibitor project, luminescence, BacTiterGlo (AID 1915); assay type: functional, organism-based;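 also: potency for reduction of bacterial viability or growth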
[19] = test system: Streptococcus sp. 'group A'; test: growth inhibition of control SK(-) GAS strain, dose response, counter-screen for streptokinase expression inhibitor project, luminescence, kanamycin, BacTiterGlo, confirmation (AID 1900); assay type: functional, organism-based
[20] = target: Induced myeloid leukemia cell differentiation protein Mcl-1 (Homo sapiens, UniProt Q07820); assay type: functional
Induced myeloid leukemia cell differentiation protein Mcl-1, sequence (Q07820 whole entry): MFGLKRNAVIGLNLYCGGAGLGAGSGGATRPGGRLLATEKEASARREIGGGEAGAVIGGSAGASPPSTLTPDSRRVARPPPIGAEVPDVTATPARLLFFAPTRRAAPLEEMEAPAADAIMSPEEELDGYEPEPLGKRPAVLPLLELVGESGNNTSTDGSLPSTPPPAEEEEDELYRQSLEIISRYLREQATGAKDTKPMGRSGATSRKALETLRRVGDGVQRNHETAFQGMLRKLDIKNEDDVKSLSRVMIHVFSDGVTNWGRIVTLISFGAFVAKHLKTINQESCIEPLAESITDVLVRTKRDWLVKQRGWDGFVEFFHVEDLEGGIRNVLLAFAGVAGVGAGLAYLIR

Cytochrome P450 2D6 = Cytochrome P450 2D6 (Homo sapiens, UniProt P10635);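 also: CYP2D6 member of a cytochrome P450 panel assay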
Cytochrome P450 2D6, sequence (P10635 whole entry): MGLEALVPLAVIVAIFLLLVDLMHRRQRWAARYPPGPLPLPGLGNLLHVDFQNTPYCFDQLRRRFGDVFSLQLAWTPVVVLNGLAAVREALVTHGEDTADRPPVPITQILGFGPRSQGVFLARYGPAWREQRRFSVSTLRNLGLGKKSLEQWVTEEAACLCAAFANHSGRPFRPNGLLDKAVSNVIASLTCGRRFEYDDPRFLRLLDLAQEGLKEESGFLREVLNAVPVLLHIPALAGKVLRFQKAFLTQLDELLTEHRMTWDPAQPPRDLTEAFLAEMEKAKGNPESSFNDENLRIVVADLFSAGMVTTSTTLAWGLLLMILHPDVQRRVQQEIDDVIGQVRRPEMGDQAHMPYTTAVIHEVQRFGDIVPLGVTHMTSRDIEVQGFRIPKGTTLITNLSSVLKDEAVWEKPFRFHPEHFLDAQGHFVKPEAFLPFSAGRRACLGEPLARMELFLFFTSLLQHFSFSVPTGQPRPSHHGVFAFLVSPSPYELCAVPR

[21] = P. falciparum Dd2 growth inhibitors, dose response, SYBR Green, cherry-picked samples (AID 1159567); assay type: functional, cell-based
P388 = test: cells; assay type: functional; conditions: Mus musculus
P388/ADR = test: cells; assay type: functional; conditions: Mus musculus
SN12K1 = test: cells; assay type: functional; conditions: Homo sapiens
Large T antigen = Large T antigen (Simian virus 40, UniProt P03070); assay type: functional, Betapolyomavirus macacae;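 also: Confirmatory-stage PubChem screen for compounds that inhibit SV40 T antigen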

T1 sequence (Q00975 whole entry): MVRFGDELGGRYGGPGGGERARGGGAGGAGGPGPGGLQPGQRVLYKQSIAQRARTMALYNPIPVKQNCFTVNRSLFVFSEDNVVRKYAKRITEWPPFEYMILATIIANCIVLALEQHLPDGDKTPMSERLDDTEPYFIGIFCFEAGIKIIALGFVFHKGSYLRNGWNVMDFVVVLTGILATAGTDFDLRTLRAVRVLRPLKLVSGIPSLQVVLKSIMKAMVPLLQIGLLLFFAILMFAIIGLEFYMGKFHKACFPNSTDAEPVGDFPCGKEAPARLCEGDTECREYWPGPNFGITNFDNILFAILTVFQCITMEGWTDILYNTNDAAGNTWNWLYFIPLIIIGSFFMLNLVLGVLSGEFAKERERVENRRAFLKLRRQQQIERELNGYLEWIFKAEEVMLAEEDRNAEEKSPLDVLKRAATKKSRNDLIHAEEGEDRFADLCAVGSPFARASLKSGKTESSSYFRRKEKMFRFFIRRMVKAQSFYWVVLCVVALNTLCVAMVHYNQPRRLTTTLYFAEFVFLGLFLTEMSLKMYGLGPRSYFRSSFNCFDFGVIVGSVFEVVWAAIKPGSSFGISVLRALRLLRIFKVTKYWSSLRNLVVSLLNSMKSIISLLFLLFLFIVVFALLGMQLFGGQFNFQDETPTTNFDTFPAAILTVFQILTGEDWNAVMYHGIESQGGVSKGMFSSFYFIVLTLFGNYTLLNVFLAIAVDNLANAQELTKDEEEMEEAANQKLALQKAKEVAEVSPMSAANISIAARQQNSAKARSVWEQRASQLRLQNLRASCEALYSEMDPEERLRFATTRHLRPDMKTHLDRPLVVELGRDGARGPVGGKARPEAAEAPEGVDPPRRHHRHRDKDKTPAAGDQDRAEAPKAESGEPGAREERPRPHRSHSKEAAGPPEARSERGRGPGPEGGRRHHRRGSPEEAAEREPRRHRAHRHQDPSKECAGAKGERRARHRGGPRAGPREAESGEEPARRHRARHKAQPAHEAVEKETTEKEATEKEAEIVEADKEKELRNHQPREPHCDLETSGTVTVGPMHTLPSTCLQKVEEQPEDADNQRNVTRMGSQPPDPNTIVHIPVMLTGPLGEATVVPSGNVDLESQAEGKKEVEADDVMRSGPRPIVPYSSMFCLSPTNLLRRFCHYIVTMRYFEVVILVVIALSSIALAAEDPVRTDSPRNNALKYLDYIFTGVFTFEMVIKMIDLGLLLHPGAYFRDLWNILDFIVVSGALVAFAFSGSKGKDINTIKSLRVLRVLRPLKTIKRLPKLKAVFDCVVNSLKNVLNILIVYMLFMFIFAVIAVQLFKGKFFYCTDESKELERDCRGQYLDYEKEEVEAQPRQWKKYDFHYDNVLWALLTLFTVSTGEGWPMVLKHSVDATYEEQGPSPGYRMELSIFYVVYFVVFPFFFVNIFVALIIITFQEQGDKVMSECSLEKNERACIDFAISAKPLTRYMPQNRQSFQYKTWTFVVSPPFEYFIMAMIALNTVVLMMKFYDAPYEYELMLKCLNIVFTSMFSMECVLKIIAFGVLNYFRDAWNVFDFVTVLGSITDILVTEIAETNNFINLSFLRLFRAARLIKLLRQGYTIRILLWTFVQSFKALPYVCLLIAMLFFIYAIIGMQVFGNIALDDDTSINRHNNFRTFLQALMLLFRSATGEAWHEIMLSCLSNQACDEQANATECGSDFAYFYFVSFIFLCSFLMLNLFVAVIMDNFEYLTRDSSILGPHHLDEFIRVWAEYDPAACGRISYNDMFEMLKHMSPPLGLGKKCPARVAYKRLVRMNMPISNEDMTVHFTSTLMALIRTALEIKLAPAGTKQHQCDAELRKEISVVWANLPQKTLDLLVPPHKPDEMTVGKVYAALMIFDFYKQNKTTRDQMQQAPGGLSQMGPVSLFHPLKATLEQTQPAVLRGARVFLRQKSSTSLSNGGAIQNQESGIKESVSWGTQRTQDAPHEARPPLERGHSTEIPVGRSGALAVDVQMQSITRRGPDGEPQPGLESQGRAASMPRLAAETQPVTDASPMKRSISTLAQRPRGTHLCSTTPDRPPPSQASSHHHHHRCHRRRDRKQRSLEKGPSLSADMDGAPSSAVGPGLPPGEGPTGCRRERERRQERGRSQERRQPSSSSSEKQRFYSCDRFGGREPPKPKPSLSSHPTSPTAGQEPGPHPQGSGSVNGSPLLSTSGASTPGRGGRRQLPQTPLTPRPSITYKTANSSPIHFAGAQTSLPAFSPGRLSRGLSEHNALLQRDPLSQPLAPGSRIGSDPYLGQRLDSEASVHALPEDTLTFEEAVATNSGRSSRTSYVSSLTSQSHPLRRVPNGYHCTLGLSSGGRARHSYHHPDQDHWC
T1 sequence (Q02410 whole entry): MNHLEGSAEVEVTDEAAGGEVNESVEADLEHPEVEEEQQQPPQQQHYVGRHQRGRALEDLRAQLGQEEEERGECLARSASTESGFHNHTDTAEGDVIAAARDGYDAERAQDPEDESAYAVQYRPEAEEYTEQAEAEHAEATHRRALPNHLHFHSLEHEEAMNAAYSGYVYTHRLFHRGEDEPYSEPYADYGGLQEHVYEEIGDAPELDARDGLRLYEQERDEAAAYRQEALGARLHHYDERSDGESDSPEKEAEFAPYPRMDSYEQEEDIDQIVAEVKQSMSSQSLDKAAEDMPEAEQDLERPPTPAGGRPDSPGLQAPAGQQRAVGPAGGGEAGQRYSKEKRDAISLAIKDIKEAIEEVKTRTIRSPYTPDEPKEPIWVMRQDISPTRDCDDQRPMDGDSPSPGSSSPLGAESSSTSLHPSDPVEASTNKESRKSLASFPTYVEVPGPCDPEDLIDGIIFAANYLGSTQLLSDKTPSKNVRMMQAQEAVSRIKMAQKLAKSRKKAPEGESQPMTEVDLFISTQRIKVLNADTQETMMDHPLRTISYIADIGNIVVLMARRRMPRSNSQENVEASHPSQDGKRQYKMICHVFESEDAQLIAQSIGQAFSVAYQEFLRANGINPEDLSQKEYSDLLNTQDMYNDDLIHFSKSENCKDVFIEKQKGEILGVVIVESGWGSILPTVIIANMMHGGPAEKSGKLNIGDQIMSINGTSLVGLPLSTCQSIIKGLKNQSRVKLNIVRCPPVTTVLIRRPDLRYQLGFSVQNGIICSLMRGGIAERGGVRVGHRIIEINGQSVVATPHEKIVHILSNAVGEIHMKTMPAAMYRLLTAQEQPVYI

Cc1cccc(-n2cnc3c(c2=O)c2nc4ccccc4nc2n3Cc2ccco2)c1
IC50 [1]: 0.871 µM (active) | IC50 [2]: 2.16 µM (active)

CC(C)c1ccc(OCC(=O)NNC(=O)c2cnccn2)cc1
IC50 (cells [3]): 11.9 µM (active)

CN(C)c1ncc2ncc(=O)n(CCC#N)c2n1
AC50 (Cytochrome P450 2C9): inconclusive

COc1ccc(NC(=O)C2C3CCC(C3)C2C(=O)O)cc1OC (stereo not given)
Ki (fMet-Leu-Phe receptor): > 66.7 µM (inactive)

CC1CCCC(NC(=O)CCn2c(=O)oc3ccccc32)C1C (stereo not given)
AC50 (Cytochrome P450 2C19): 4.47 µM (inconclusive) | AC50 (Cytochrome P450 2C9): inconclusive

CC12CN3CC(C)(CN(C1)C3c1ccc(Cl)cc1Cl)C2O (stereo not given)
EC50 [4]: 4.22 µM (active)

CCOC(=O)c1oc2cc(O)ccc2c(=O)c1-c1ccccc1OC
Ki (fMet-Leu-Phe receptor): > 66.7 µM (inactive)

CCCS(=O)(=O)N1CCCC(C(=O)N2CCC(Cc3ccccc3)CC2)C1 (stereo not given)
EC50 [5]: > 195 µM (not active) | Ki (fMet-Leu-Phe receptor): > 66.7 µM (inactive)

CCN(CC)S(=O)(=O)c1cc(NC(=O)CNc2cccc(S(=O)(=O)N3CCCC3)c2)ccc1C
AC50 [6]: 1.2 µM (active) | IC50 [7]: > 80 µM (inactive) | AC50 [8]: 0.648 µM (active) | AC50 [9]: > 70 µM (inactive) | AC50 (INS1): 5.23 µM (active)

CC(C)COCC1CC2(CC(C)(c3csc(N)n3)OC2=O)C(=O)O1 (stereo not given)
AC50 (Cytochrome P450 2C9): inconclusive

CCOC(=O)Cc1cc(O)n2nc(C)c(-c3ccc(OC)cc3)c2n1
Ki (fMet-Leu-Phe receptor): 18.3 µM (inactive)

N#CC1=C(N)N=C(S)C(C(N)=O)C1c1ccc(Cl)cc1Cl (stereo not given)
IC50 [1]: > 50 µM (inactive) | IC50 [2]: 13.3 µM (active)

CN1CCN(CCCNC(=O)Nc2cccc3ccccc23)CC1
Ki (fMet-Leu-Phe receptor): > 66.7 µM (inactive)

CCOc1ccccc1NC(=O)Cn1nnc(C(=O)NCc2ccco2)c1N
EC50 (BJ [10]): 1.81 µM (inconclusive) | EC50 (BJ [11]): 2.66 µM (inconclusive) | IC50 [7]: > 80 µM (inactive) | EC50 (BJ [12]): 3.17 µM (active) | EC50 [13]: 0.134 µM (active) | EC50 [14]: 0.216 µM (active) | EC50 [15]: 0.109 µM (active) | EC50 [16]: 2.65 µM (active)

COc1ccc(C)cc1NC1=NC(C)(C)CS1
EC50 [4]: 7.5 µM (active)

Cc1nn(C)cc1CNC(=O)CCC(=O)O
AC50 (Cytochrome P450 2C9): inconclusive

O=C(c1ccc(Cl)cc1)N(Cc1cccs1)C1CCS(=O)(=O)C1 (stereo not given)
Ki (fMet-Leu-Phe receptor): > 66.7 µM (inactive)

O=C(N/N=C/c1ccncc1)c1ccc(NC(=O)c2ccc(Cl)cc2)cc1
IC50 [1]: > 50 µM (inactive) | IC50 [2]: > 56.8 µM (not active)

COc1ccc(-c2cc(C(F)(F)F)nc(N3CCN(c4ccccc4)CC3)n2)cc1OC
Ki (fMet-Leu-Phe receptor): > 66.7 µM (inactive)

Cc1cc(C(=O)N/N=C/c2cc(N=Nc3ccccc3)ccc2O)[nH]n1
EC50 (cells [17]): 11.5 µM (active) | EC50 (cells [18]): 27.9 µM (active) | EC50 (Streptococcus): 1.92 µM (active) | IC50 [1]: > 50 µM (inactive) | EC50 [13]: 10.7 µM (active) | EC50 [14]: 13 µM (active) | EC50 [19]: 2.04 µM (active) | EC50 [15]: 9.08 µM (active) | IC50 [2]: 10.9 µM (active) | IC50 [20]: 2.22 µM (active) | AC50 (INS1): 1.22 µM (active)

O=C(N/N=C/C=C/c1ccccc1)c1ccncc1
IC50 (cells [3]): 0.48 µM (active)

COc1ccc(OC)c(/C=N/NC(=O)c2csc3ccccc23)c1
AC50 (Cytochrome P450 2D6): 20 µM (inconclusive) | AC50 (Cytochrome P450 2C9): inconclusive

COc1ccc(C#Cc2cccc(-c3nc(C(=O)N[C@@H]4CCN(Cc5ccccc5)C4)cc4c3[C@H](CCO)N([S+]([O-])C(C)(C)C)C4)c2)cc1OC (stereo not given in full)
AC50 [21]: 4.45 µM (active)

C/C=C/c1ccc2c(c1)[C@@H]1[C@@H](CCN1S(=O)(=O)c1ccccc1C)[C@H](CO)N2
AC50 [21]: 7.49 µM (active)

C[C@@H]1CN([C@@H](C)CO)S(=O)(=O)c2ccc(C#Cc3ccncc3)cc2O[C@H]1CN(C)S(=O)(=O)c1ccc(F)cc1
AC50 [21]: 2.95 µM (active)

COCC(=O)N1CC2(C1)CN(Cc1ccccc1F)[C@H](CO)c1[nH]c3cc(OC)ccc3c12
AC50 [21]: 11.5 µM (active)

CN(C)c1nc(N(C)C)nc(N(C)C)n1 [ALTRETAMINE]
GI50 (P388): > 106 µM (inactive) | GI50 (P388/ADR): > 136 µM (inactive) | GI50 (SN12K1): > 150 µM (inactive) | Ki (fMet-Leu-Phe receptor): > 66.7 µM (inactive)

Cc1cc(O)c(C=O)c2c1C(=O)Oc1c(CO)c(O)c3c(c1O2)C(O)OC3=O (stereo not given) [SLAZINIC ACID]
IC50 (Large T antigen): 17.5 µM (active) | IC50 [1]: 12.5 µM (active) | IC50 [2]: 14.8 µM (active)
